Results: paper PMC9030827, “In Vitro Effects of Mitochondria-Targeted Antioxidants in a Small-Cell Carcinoma of the Ovary of Hypercalcemic Type and in Type 1 and Type 2 Endometrial Cancer” (Biomedicines, 2022)

How the values were obtained:
COV434 cells [1] = assay: MTT cell viability assay; format: cell-based; settings: Homo sapiens
Method: (§1) Experiments were performed using the following cell lines: Ishikawa, Hec50co, COV434, and HFF-1. The Ishikawa cell line (RRID: CVCL_2529) was established from an endometrial adenocarcinoma. The Hec50co cell line (RRID: CVCL_4Y59) consists of poorly differentiated endometrial tumor cells isolated from a patient with advanced disease. Both the Ishikawa and Hec50co cell lines were kindly provided by Dr. Kim K. Leslie (The University of New Mexico Health Sciences Center, Albuquerque, NM, USA). COV434 (RRID: CVCL_2010) were initially isolated from a patient diagnosed with a granulosa cell tumor but were recently classified as cells from a small-cell carcinoma of the ovary, hypercalcemic type.The COV434 cells were purchased from the European Collection of Authenticated Cell Cultures (ECACC) (#07071909). HFF-1 (RRID: CVCL_3285) is an immortalized human foreskin fibroblasts cell line, obtained from the American Type Culture Collection (ATCC), which was used as control, as they are non-tumorous cells. The Ishikawa and Hec50co cells were maintained in Dulbecco’s Modified Eagle Medium/F12 (DMEM/F12) supplemented with 5% Foetal Bovine Serum (FBS). COV434 cells were maintained in DMEM/F12 supplemented with 10% FBS. HFF-1 were maintained in Roswell Park Memorial Institute 1640 (RPMI 1640) supplemented with 10% FBS. All mediums were supplemented with 1% AB-AM and all cells were kept at 37 °C with 5% CO2. The treatment with the compounds was done in the respective cell medium supplemented with 2% FBS and 24 h after platting the cells in the culture medium with 5% FBS to allow their adherence.
(§2) The Ishikawa, Hec50co, COV434, and HFF-1 cell lines were plated at a density of 5 × 10^4 cells/well in transparent 96-well plates. After 24 h, the cells were treated with Mito6_TPP, Mito6_picol., or Mito6_isoq. (0.01–100 μM) and incubated at 37 °C with 5% CO2 for 24, 48, or 72 h. […] The conditions of the methylthiazolyldiphenyl-tetrazolium bromide (MTT) assay were adapted from the work of Banerjee et al.. Briefly, MTT was added to a final concentration of 0.5 mg/mL, and the cells were incubated for 3 h at 37 °C with 5% CO2. After the 3 h, purple MTT formazan crystals were dissolved by agitation for 15 min in a solution of DMSO/isopropanol (ratio 3:1) and quantified spectrophotometrically at 540 nm. The neutral red (NR) assay conditions were based on the work developed by Repetto et al.. Briefly, after the incubation time, cells were incubated with NR at 40 μg/mL in an FBS-free cell medium for 3 h. The cells were then incubated with a solution of 50% ethanol (96% v/v), 49% deionized water, and 1% glacial acetic acid, with shaking for 15 min. The NR extracted from the cells was measured at 540 nm. The LDH cytotoxicity assay was not performed on the HFF-1 cells due to the lack of evidence of cell death at the concentrations tested. After the incubation time, this assay was performed using a Thermo Scientific Pierce LDH Cytotoxicity Assay Kit according to the manufacturer’s instructions. For all assays, the absorbance was read using a BioTek Synergy HTX Multi-Mode Microplate Reader equipped with BioTek Gen5 Data Collection and Analysis Software (BioTek Instruments, Winooski, VT, USA).
(§3) Data were evaluated using the one- or two-way analysis of variance (ANOVA) test followed by Bonferroni’s test for multiple comparisons. The data presented was expressed as mean ± SEM (Standard Error of the Mean) of a minimum of three and a maximum of seven independent experiments performed in triplicate. Values of p < 0.05 were considered statistically significant. Half of the maximal effective concentration (EC50) values were estimated by interpolation of dose-response curves and reported as a mean with a 95% confidence interval (CI 95%). All statistical analysis was performed using GraphPad Prism Software 8.0 (GraphPad Software, Inc., San Diego, CA, USA). […]

HFF-1 cells [2] = assay: MTT cell viability assay; format: cell-based; settings: Homo sapiens
Method: as §1, §2, §3

Hec50co cells [3] = assay: MTT cell viability assay; format: cell-based; settings: Homo sapiens
Method: as §1, §2, §3

Ishikawa cells [4] = assay: MTT cell viability assay; format: cell-based; settings: Homo sapiens
Method: as §1, §2, §3

COV434 cells [5] = assay: Neutral red (NR) cell viability assay; format: cell-based; settings: Homo sapiens
Method: as §1, §2, §3

HFF-1 cells [6] = assay: Neutral red (NR) cell viability assay; format: cell-based; settings: Homo sapiens
Method: as §1, §2, §3

Hec50co cells [7] = assay: Neutral red (NR) cell viability assay; format: cell-based; settings: Homo sapiens
Method: as §1, §2, §3

Ishikawa cells [8] = assay: Neutral red (NR) cell viability assay; format: cell-based; settings: Homo sapiens
Method: as §1, §2, §3

Ishikawa cells [9] = assay: Cell morphology by Giemsa staining; format: cell-based, human; settings: 72 h, 5 μM Mito6_TPP, 20 μM Mito6_picol., 10 μM Mito6_isoq.
Method: Morphological changes in all cell lines were evaluated by phase-contrast microscopy (Eclipse TS100 Inverted Microscope, Nikon, Tokyo, Japan) and Giemsa staining. […] The cells were plated in 24-well plates with coverslips using the densities of 1 × 10^5 cells/well in Ishikawa and Hec50co and 2.5 × 10^5 cells/well in COV434 and HFF-1. After adherence, the cells were treated with Mito6_TPP (5 μM), Mito6_picol. (20 μM), or Mito6_isoq. (10 μM) and incubated at 37 °C with 5% CO2 for 72 h. For Giemsa staining, the cells were fixated with paraformaldehyde 4% in Phosphate Buffered Saline (PBS) for 15 min, stained with Giemsa solution for 30 min, mounted with DPX, and observed through bright field microscopy. For Höechst staining, the cells were incubated with 0.5 μg/mL Höechst 33342 in PBS for 20 min in the dark, mounted in Fluoroshield, and observed under a fluorescence microscope equipped with an excitation filter with maximum transmission at 360/400 nm. In both stainings, the cells were observed using the microscope Eclipse CI (Nikon, Japan) and the images were processed with Nikon NIS Elements Image Software (Nikon, Japan).

[10] = COV434, 24 hours of incubation, read-out: EC50 (decrease of viability), MTT assay
[11] = COV434, 48 h of incubation, read-out: EC50 (decrease of viability), MTT Assay
[12] = COV434, 72 hours of incubation, read-out: EC50 (decrease of viability), MTT assay
[13] = 24 h, read-out: EC50 (decrease of viability), MTT assay
[14] = 48 h, read-out: EC50 (decrease of viability), MTT Assay
[15] = 72 h, read-out: EC50 (decrease of viability), MTT assay
[16] = COV434, 24 hours of incubation, read-out: EC50 (decrease of viability), NR assay
[17] = COV434, 48 h of incubation, read-out: EC50 (decrease of viability), NR Assay
[18] = COV434, 72 hours of incubation, read-out: EC50 (decrease of viability), NR assay
[19] = 24 h, read-out: EC50 (decrease of viability), NR assay
[20] = 48 h, read-out: EC50 (decrease of viability), NR Assay
[21] = 72 h, read-out: EC50 (decrease of viability), NR assay
[22] = HFF-1, 48 h of incubation, read-out: EC50 (decrease of viability), MTT Assay
[23] = Hec50co, 24 hours of incubation, read-out: EC50 (decrease of viability), MTT assay
[24] = Hec50co, 48 h of incubation, read-out: EC50 (decrease of viability), MTT Assay
[25] = Hec50co, 72 hours of incubation, read-out: EC50 (decrease of viability), MTT assay
[26] = 24 hours of incubation, read-out: EC50 (decrease of viability), MTT assay
[27] = 48 h of incubation, read-out: EC50 (decrease of viability), MTT Assay
[28] = 72 hours of incubation, read-out: EC50 (decrease of viability), MTT assay
[29] = HFF-1, 48 h of incubation, read-out: EC50 (decrease of viability), NR Assay
[30] = Hec50co, 24 hours of incubation, read-out: EC50 (decrease of viability), NR assay
[31] = Hec50co, 48 h of incubation, read-out: EC50 (decrease of viability), NR Assay
[32] = Hec50co, 72 hours of incubation, read-out: EC50 (decrease of viability), NR assay
[33] = 24 hours of incubation, read-out: EC50 (decrease of viability), NR assay
[34] = 48 h of incubation, read-out: EC50 (decrease of viability), NR Assay
[35] = 72 hours of incubation, read-out: EC50 (decrease of viability), NR assay

| SMILES | EC50 (COV434 cells [1]; [10]) [µM] | EC50 (COV434 cells [1]; [11]) [µM] | EC50 (COV434 cells [1]; [12]) [µM] | EC50 (COV434 cells [5]; [16]) [µM] | EC50 (COV434 cells [5]; [17]) [µM] | EC50 (COV434 cells [5]; [18]) [µM] | Cell morphology changes (Giemsa staining) (Ishikawa cells [9]) | EC50 (HFF-1 cells [2]; [22]) [µM] | EC50 (Hec50co cells [3]; [23]) [µM] | EC50 (Hec50co cells [3]; [24]) [µM] | EC50 (Hec50co cells [3]; [25]) [µM] | EC50 (Ishikawa cells [4]; [26]) [µM] | EC50 (Ishikawa cells [4]; [27]) [µM] | EC50 (Ishikawa cells [4]; [28]) [µM] | EC50 (HFF-1 cells [6]; [29]) [µM] | EC50 (Hec50co cells [7]; [30]) [µM] | EC50 (Hec50co cells [7]; [31]) [µM] | EC50 (Hec50co cells [7]; [32]) [µM] | EC50 (Ishikawa cells [8]; [33]) [µM] | EC50 (Ishikawa cells [8]; [34]) [µM] | further results |
| --- | --- | --- | --- | --- | --- | --- | --- | --- | --- | --- | --- | --- | --- | --- | --- | --- | --- | --- | --- | --- | --- |
| O=C(/C=C/c1ccc(O)c(O)c1)NCCCCCCCCCC[P+](c1ccccc1)(c1ccccc1)c1ccccc1 [Mito6_TPP] | 4.64 | 2.37 | 0.577 | 13.6 | 9.11 | 4.01 | altered cell shapes and indications of chromatin condensation |  |  |  |  |  |  |  |  |  |  |  |  |  | EC50 (HFF-1 cells [2]; HFF-1, 24 h, read-out: EC50 (decrease of viability), MTT assay): > 100 µM; EC50 (HFF-1 cells [2]; HFF-1, 48 h, read-out: EC50 (decrease of viability), MTT Assay): 44.5 µM; EC50 (HFF-1 cells [2]; HFF-1, 72 h, read-out: EC50 (decrease of viability), MTT assay): 37 µM; EC50 (Hec50co cells [3]; [13]): 7.75 µM; EC50 (Hec50co cells [3]; [14]): 1.87 µM; EC50 (Hec50co cells [3]; [15]): 0.847 µM; EC50 (Ishikawa cells [4]; [13]): 9.14 µM; EC50 (Ishikawa cells [4]; [14]): 2.45 µM; EC50 (Ishikawa cells [4]; [15]): 0.925 µM; EC50 (HFF-1 cells [6]; HFF-1, 24 h, read-out: EC50 (decrease of viability), NR assay): 73.6 µM; EC50 (HFF-1 cells [6]; HFF-1, 48 h, read-out: EC50 (decrease of viability), NR Assay): 57 µM; EC50 (HFF-1 cells [6]; HFF-1, 72 h, read-out: EC50 (decrease of viability), NR assay): 45.1 µM; EC50 (Hec50co cells [7]; [19]): 53.6 µM; EC50 (Hec50co cells [7]; [20]): 35.4 µM; EC50 (Hec50co cells [7]; [21]): 23.9 µM; EC50 (Ishikawa cells [8]; [19]): 33.2 µM; EC50 (Ishikawa cells [8]; [20]): 15.7 µM; EC50 (Ishikawa cells [8]; [21]): 11.2 µM |
| O=C(/C=C/c1ccc(O)c(O)c1)NCCCCCCCCCC[n+]1ccc2ccccc2c1 [Mito6_isoq.] | 29.5 | 7.16 | 3.16 | 51.6 | 40 | 30.8 | cell shape alterations | > 100 | 19 | 9.55 | 6.59 | 29.9 | 15.4 | 7.16 | 97 | > 100 | 150 | 87.6 | 55.3 | 36.9 | EC50 (HFF-1 cells [6]; HFF-1, 24 hours of incubation, read-out: EC50 (decrease of viability), NR assay): > 100 µM; EC50 (HFF-1 cells [6]; HFF-1, 72 hours of incubation, read-out: EC50 (decrease of viability), NR assay): 68.6 µM; EC50 (Ishikawa cells [8]; [35]): 28.9 µM |
| Cc1cc[n+](CCCCCCCCCCNC(=O)/C=C/c2ccc(O)c(O)c2)cc1 [Mito6_picol.] | 53.2 | 15.9 | 6.6 | 87.8 | 62.5 | 34.2 | did not induce any morphological changes | > 100 | 27.3 | 13.8 | 17.2 | 42.9 | 23.6 | 10.8 | > 100 | > 100 | 197 | 92 | > 100 | 84.4 | EC50 (Ishikawa cells [8]; [35]): 59.4 µM |
